Results published in patent publication US6271342A, “Sugar-modified cytostatics” (Bayer Aktiengesellschaft, priority 1995, dated 2001).
Where a name gives a salt, the structure may show the parent alone.

What was measured:
HT 29 = assay: Growth inhibition test (MTT) for cytotoxic properties; type: cell-based, human; details: Table 1a, glycoconjugates of batracyline
Experimental: (§1) Growth Inhibition Test for Determination of the Cytotoxic Properties of Glycoconjugates of Batracyline and of Quinolone-a
(§2) The human colon cell lines SW 480 and HT 29 (ATCC no. CCL 228 and HBT-38) and the mouse melanoma cell line B 16 F 10 were cultured in Roux dishes in RPMI 1640 medium with addition of 10% FCS. The cultures were then trypsinized and taken up in RPMI plus 10% FCS to a cell count of 50,000 cells/ml. 100 μl of cell suspension/well were introduced into a 96 microwell plate and incubated for 1 day at 37° C. in a CO2 incubating cabinet. A further 100 μl of RPMI medium and 1 μl of dimethyl sulphoxide with the test substances were then added. The growth was checked after day 3 and day 6. 40 μl of MTT solution (3-(4,5-dimethylthiazol-2-yl)-2,5-diphenyltetrazoline bromide) with an initial concentration of 5 mg/ml of H2 O were added to each microwave. The plate was incubated for 5 hours in a CO2 incubating cabinet at 37° C. The medium was then sucked off and 100 μl of i-propanol/well were added. After shaking for 30 minutes with 100 μl of H2 O, the extinction was measured at 540 nm with a Titertek Multiskan MCC/340 (Flow).
(§3) The cytotoxic action of the glycoconjugates of batracyline described is shown in Table 1a as the IC50 value in each case for the SW 480 and HT 29 cell lines.

SW 480 = assay: as above; type: cell-based, human; details: Table 1a, glycoconjugates of batracyline
Experimental: as §1, §2, §3

Compound | IC50 (HT 29) | IC50 (SW 480)
CO[C@@H]1[C@@H](O)[C@H](Oc2ccc(NC(=S)N[C@@H](CCCCN)C(=O)N[C@H](C)C(=O)Nc3ccc4c(c3)CN3C(=O)c5ccccc5C3=N4)cc2)O[C@H](CO)[C@@H]1OC [Example 4.5, N-{N^α -[O-(3,4-Di-O-methyl-β-D-galactopyranosyl)-4-hydroxy-phenylamino-thiocarbonyl]-lysyl-D-alanyl}-batracyline] | 15 µM | 15 µM
COC1C(O)C(C)OC(Oc2ccc(NC(=S)NCCCCC(NC(=S)Nc3ccc(OC4OC(C)C(O)C(OCC(=O)O)C4O)cc3)C(=O)NC(C)C(=O)Nc3ccc4nc5n(c(=O)c4c3)Cc3ccccc3-5)cc2)C1O [Example 5.1, N-{N^α -[O-(3-O-Carboxymethyl-β-L-fucosyl)-4-hydroxyphenylaminothiocarbonyl] -N^ε -[O-(3-O-methyl-β-L-fucosyl)-4-hydroxyphenylaminothiocarbonyl]-lysyl-D-alanyl}-batracyline] | 45 µM | 55 µM
COC1C(C)OC(Oc2ccc(NC(=S)NCCCCC(NC(=S)Nc3ccc(OC4OC(C)C(OC)C(O)C4O)cc3)C(=O)NC(C)C(=O)Nc3ccc4nc5n(c(=O)c4c3)Cc3ccccc3-5)cc2)C(O)C1O [Example 6.3, N-{N^α,N^ε -Bis-[O-(4-O-methyl-β-L-fucosyl)-4-hydroxy-phenylamino-thiocarbonyl]-lysyl-D-alanyl}-batracyline] | 105 µM | 70 µM
O=C(O)CO[C@H]1[C@@H](O)[C@@H](CO)O[C@@H](Oc2ccc(NC(=S)NCCCC[C@H](NC(=S)Nc3ccc(O[C@@H]4O[C@H](CO)[C@H](O)[C@H](OCC(=O)O)[C@H]4O)cc3)C(=O)Nc3ccc4nc5n(c(=O)c4c3)Cc3ccccc3-5)cc2)[C@@H]1O [Example 6.28, N-{N^α,N^ε -Bis-[O-(3-O-carboxymethyl-β-D-galactopyranosyl)-4-hydroxy-phenylamino-thiocarbonyl]-lysyl}-batracyline, di-sodium salt] | 25 µM | 40 µM
NC(=O)COC1C(O)C(CO)OC(Oc2ccc(NC(=S)NCCCCC(NC(=S)Nc3ccc(OC4OC(CO)C(O)C(OCC(N)=O)C4O)cc3)C(=O)Nc3ccc4nc5n(c(=O)c4c3)Cc3ccccc3-5)cc2)C1O [Example 6.29, N-{N^α,N^ε -Bis-[O-(3-O-carbamoylmethyl-β-D-galactopyranosyl)-4-hydroxy-phenylamino-thiocarbonyl]-lysyl}-batracyline] | 130 µM | 95 µM
COC1C(O)C(C)OC(Oc2ccc(NC(=S)Nc3ccc4c(c3)Cn3c-4nc4ccccc4c3=O)cc2)C1O [Example 7.7, N-[O-(3-O-Methyl-β-L-fucosyl)-4-hydroxy-phenylamino-thiocarbonyl]-batr acyline] | > 250 µM | 100 µM
N-{N-(O-(3-O-Methyl-β-L-fucosyl)-4-hydroxy-phenylamino-thiocarbonyl]-D -alanyl}-batracyline [Example 7.1] | 40 µM | 40 µM
N-{N-[O-(3,4-Di-O-methyl-β-D-galactopyranosyl)-4-hydroxy-phenylamino-t hio-carbonyl]-D-alanyl}-batracyline [Example 7.8] | 30 µM | 40 µM
N-{N-[O-(3-O-Carbamoylmethyl-β-D-galactopyranosyl)-4-hydroxy-phenylami no-thiocarbonyl]-D-alanyl}-batracyline [Example 7.12] | 10 µM | 10 µM
N-{N-[O-(3-O-Carboxymethyl-β-D-galactopyranosyl)-4-hydroxy-phenylamino -thiocarbonyl]-D-alanyl}-batracyline, sodium salt [Example 7.11] | 25 µM | 30 µM
N-{N-[O-(3-O-Carboxymethyl-β-L-fucosyl)-4-hydroxy-phenylamino-thiocarb onyl]-D-alanyl}-batracyline, sodium salt [Example 7.2] | 30 µM | 40 µM
N-{N-[O-(α-D-Mannopyranosyl)-4-hydroxy-phenylamino-thiocarbonyl]-lysy l-D-alanyl}-batracyline [Example 4.11] | 15 µM | 15 µM
N-{N^α -[-(3-O-Carbamoylmethyl-β-D-galactopyranosyl)-4-hydroxy-phenylamino-t hiocarbonyl]-lysyl-D-alanyl}-batracyline [Example 4.10] | 30 µM | 30 µM
N-{N^α -[-(3-O-Carboxymethyl-β-D-galactopyranosyl)-4-hydroxy-phenylaminothio carbonyl]-N^ε -[O-(3,4-di-O-methyl-β-D-galactopyranosyl)-4-hydroxy-phenylamino-thio carbonyl]-lysyl-D-alanyl}-batracyline, sodium salt [Example 5.13] | 40 µM | 20 µM
N-{N^α -[O-(3,4-Di-O-methyl-β-D-galactopyranosyl)-4-hydroxy-phenylamino-thio carbonyl]-N^ε -[O-(3-O-(piperidyl-N)-carbonylmethyl-β-D-galactopyranosyl)-4-hydroxy -phenylamino-thiocarbonyl]-lysyl-D-alanyl}-batracyline [Example 5.15] | 70 µM | > 250 µM
N-{N^α -[O-(3,4-Di-O-methyl-β-D-galactopyranosyl)-4-hydroxy-phenylamino-thio carbonyl]-N^ε -[O-(3-O-carbamoylmethyl-β-D-galactopyranosyl)-4-hydroxy-phenylamino- thiocarbonyl]-lysyl-D-alanyl}-batracyline [Example 5.21] | 80 µM | 60 µM
N-{N^α -[O-(3-O-Carbamoylmethyl-β-D-galactopyranosyl)-4-hydroxy-phenylamino- thiocarbonyl]-N^ε -[O-(3-O-carboxymethyl-β-D-galactopyranosyl)-4-hydroxy-phenylamino-th iocarbonyl]-lysyl-D-alanyl}-batracyline, sodium salt [Example 5.20] | 30 µM | 50 µM
N-{N^α -[O-(3-O-Carboxymethyl-β-D-galactopyranosyl)-4-hydroxy-phenylamino-th iocarbonyl]-N^ε -[O-(3,4-di-O-methyl-β-D-galactopyranosyl)-4-hydroxy-phenylamino-thio carbonyl]-lysyl-D-alanyl}-batracyline [Example 5.14] | 30 µM | 20 µM
N-{N^α -[O-(3-O-Carboxymethyl-β-D-galactopyranosyl)-4-hydroxy-phenylamino-th iocarbonyl]-N^ε -[O-(3-O-carbamoylmethyl-β-D-galactopyranosyl)-4-hydroxy-phenylamino- thiocarbonyl]-lysyl-D-alanyl}-batracyline, sodium salt [Example 5.23] | 35 µM | 25 µM
N-{N^α -[O-(3-O-Carboxymethyl-β-D-galactopyranosyl)-4-hydroxy-phenylamino-th iocarbonyl]-lysyl-D-alanyl}-batracyline, sodium salt [Example 4.9] | 30 µM | 20 µM
N-{N^α -[O-(3-O-Methoxycarbonylmethyl-[-D-galactopyranosyl)-4-hydroxy-phenylamino -thiocarbonyl]-lysyl-D-alanyl}-batracyline [Example 4.8] | 40 µM | 50 µM
N-{N^α -[O-(3-O-Methoxycarbonylmethyl-β-D-galactopyranosyl)-4-hydroxy-phenyl amino-thiocarbonyl]-N^ε -[O-(3-O-carbamoylmethyl-β-D-galactopyranosyl)-4-hydroxy-phenylamino- thiocarbonyl]-lysyl-D-alanyl}-batracyline [Example 5.22] | 40 µM | 30 µM
N-{N^α -[O-(3-O-Methoxycarbonylmethyl-β-D-galactopyranosyl)-4-hydroxy-phenyl amino-thiocarbonyl]-N^ε -[O-(3-O-carboxymethyl-β-D-galactopyranosyl)-4-hydroxy-phenylamino-th iocarbonyl]-lysyl-D-alanyl}-batracyline, sodium salt [Example 5.19] | 25 µM | 35 µM
N-{N^α -[O-(3-O-Methoxycarbonylmethyl-β-D-galactopyranosyl)-4-hydroxyphenyla mino-thiocarbonyl]-N^ε -[O-(3,4-di-O-methyl-β-D-galactopyranosyl)-4-hydroxy-phenylamino-thio carbonyl]-lysyl-D-alanyl}-batracyline [Example 5.12] | 20 µM | 20 µM
N-{N^α -[O-(3-O-Methyl-α-D-mannopyranosyl)-4-hydroxy-phenylamino-thiocarbon yl]-lysyl-D-alanyl}-batracyline [Example 4.12] | 9 µM | 15 µM
N-{N^α -[O-(3-O-Methyl-β-D-galactopyranosyl)-4-hydroxy-phenylamino-thiocarbo nyl]-lysyl-D-alanyl}-batracyline [Example 4.7] | 15 µM | 15 µM
N-{N^ε [O-(3-O-Methyl-α-D-mannopyranosyl)-4-hydroxy-phenylamino-thiocarbony l]-lysyl-D-alanyl}-batracyline, trifluoroacetate [Example 3.26] |  | 50 µM
N-{N^ε-[O-( 3,4-Dideoxy-β-D-galactopyranosyl)-4-hydroxy-phenylamino-thiocarbonyl] -lysyl-D-alanyl}-batracyline, trifluoroacetate [Example 3.23] |  | 50 µM
